Assay results published in publication PMC7465040, “Cytotoxic and Anti-Plasmodial Activities of Stephania dielsiana Y.C. Wu Extracts and the Isolated Compounds” (Molecules, 2020).
Read-outs that look alike come from different tables or passages of the source.

Key:
MCF7 = test: SRB cell proliferation assay, MCF7; type: cell-based, human; settings: for IC50: Homo sapiens; for Selectivity index (SI) 184B5 versus MCF7 / Selectivity index (SI) MCF10A versus MCF7: Table 2B; for Selectivity index (SI) 184B5 versus MCF7: non-cancer 184B5 vs cancer MCF7; for Selectivity index (SI) MCF10A versus MCF7: non-cancer MCF10A vs cancer MCF7
Description: (§1) In vitro anticancer study: The in vitro anti-proliferative tests were carried out as described previously, using aliquots of the cell lines used therein. Briefly, HeLa, MDA-MB-231 and MDA-MB-468, MCF7, and 184B5 and MCF 10A cell lines were purchased from ATCC. The identity of the cell lines presented in this study were verified by short tandem repeat profiling by Genetica DNA Laboratories (www.celllineauthentication.com) (April 8, 2015). MCF10A was grown in DMEM F12 medium supplemented with 0.02 μg/mL epidermal growth factor, 10% FBS, 10 μg/mL insulin and […] hydrocortisone. MDA-MB-468 were grown in DMEM supplemented with 10% FBS and antibiotics cocktail (100 μg/mL streptomycin, 100 units/mL penicillin and 250 ng/mL amphotericin B). SRB cell proliferation assays were carried out as previously described, with some minor modifications. The concentration range for all tested cell lines were from 100–0.39 μg/mL for extracts and 100–0.39 μM for pure compounds. […] All experiments were carried out at least twice.

MCF 10A = test: SRB cell proliferation assay, MCF10A non-cancer cells; type: cell-based; settings: Homo sapiens
Description: as §1

[1] = tested on: chloroquine-resistant W2 P. falciparum strain; test: In vitro anti-plasmodial assay (HRP2 ELISA), W2; type: cell-based, Plasmodium falciparum; settings: for IC50: Plasmodium falciparum, W2, 72 h, read-out: IC50 (μM ± SD) W2; for SI W2 184B5 / SI W2 MCF10A: Table 3; for SI W2 184B5: selectivity index between 184B5 and parasites W2; for SI W2 MCF10A: selectivity index between MCF10A and parasites W2
Description: (§2) Parasites were grown in A-positive human blood (Etablissement Français du Sang, Marseille, France) under controlled atmospheric conditions that consisted of 10% O2, 5% CO2, and 85% N2 at 37 °C with a humidity of 95%.
(§3) In vitro anti-plasmodial assay: The two P. falciparum strains 3D7 and W2 were synchronized twice with sorbitol before use. The clonality of these strains was verified both in our laboratory and in an independent laboratory from the Worldwide Anti-malarial Resistance Network (WWARN) by PCR genotyping of the polymorphic genetic markers msp1 and msp2 and microsatellite loci. The compounds were re-suspended in methanol or DMSO 5% (v/v) and then diluted in methanol to obtain final concentrations ranging from 0.008 to 500 μg/mL (final concentration of 0.5% of methanol or DMSO). […] The plates were incubated for 72 h at 37 °C in controlled atmospheric conditions 5% CO2, 10% O2, and […]. After thawing the plates, haemolysed cultures were homogenized by vortexing the plates. Both the success of the drug susceptibility assay and the appropriate volume of haemolysed culture to use for each assay were determined for each clinical isolate during a preliminary HRP2 ELISA. Both the pre-test and subsequent ELISA assays were performed using a commercial kit (Malaria Ag Celisa, ref KM2159, Cellabs PTY LTD, Brookvale, Australia) according to the manufacturer’s recommendation. The optical density (OD) of each sample was measured with a spectrophotometer (Safire 2, Tecan, Lyon, France). […] The anti-plasmodial in vitro assay was performed five times for each product. The IC50 values represented the mean value calculated from five experiments. According to Hout, a selectivity index (SI) was based on the ratio between anti-parasitic and cytotoxic activities. In the case of our study, a SI was calculated between non-tumorigenic cell line 184B5 and parasites 3D7 or W2 and/or MCF10A and these two parasites.

184B5 = test: SRB cell proliferation assay, 184B5 non-cancer cells; type: cell-based, human; settings: Homo sapiens
Description: as §1

[2] = tested on: Plasmodium falciparum 3D7 and W2 strains; test: In vitro anti-plasmodial assay, both strains; type: cell-based
Description: as §2, §3

MDA-MB-231 = test: SRB cell proliferation assay, MDA-MB-231; type: cell-based, human; settings: for IC50: Homo sapiens; for Selectivity index (SI) 184B5 versus MDA-MB-231 / Selectivity index (SI) MCF10A versus MDA-MB-231: Table 2B; for Selectivity index (SI) 184B5 versus MDA-MB-231: non-cancer 184B5 vs cancer MDA-MB-231; for Selectivity index (SI) MCF10A versus MDA-MB-231: non-cancer MCF10A vs cancer MDA-MB-231
Description: as §1

[3] = tested on: HeLa, MDA-MB231, MDA-MB-468, MCF7, 184B5 and MCF10A cell lines; test: SRB cell proliferation assay, whole panel of cell lines; type: cell-based, human
Description: as §1

[4] = tested on: chloroquine-susceptible 3D7 P. falciparum strain; test: In vitro anti-plasmodial assay (HRP2 ELISA), 3D7; type: cell-based, Plasmodium falciparum; settings: for IC50: Plasmodium falciparum, 3D7, 72 h, read-out: IC50 (μM ± SD) 3D7; for SI 3D7 184B5 / SI 3D7 MCF10A: Table 3; for SI 3D7 184B5: selectivity index between 184B5 and parasites 3D7; for SI 3D7 MCF10A: selectivity index between MCF10A and parasites 3D7; for Selective index SI on 3D7 strain: vs 184B5 and MCF10A
Description: as §2, §3

MDA-MB-468 = test: SRB cell proliferation assay, MDA-MB-468; type: cell-based, human; settings: for IC50: Homo sapiens; for Selectivity index (SI) 184B5 versus MDA-MB-468 / Selectivity index (SI) MCF10A versus MDA-MB-468: Table 2B; for Selectivity index (SI) 184B5 versus MDA-MB-468: non-cancer 184B5 vs cancer MDA-MB-468; for Selectivity index (SI) MCF10A versus MDA-MB-468: non-cancer MCF10A vs cancer MDA-MB-468
Description: as §1

HeLa = test: SRB cell proliferation assay, HeLa; type: cell-based, human; settings: for IC50: Homo sapiens, HeLa; for Selectivity index (SI) 184B5 versus HeLa / Selectivity index (SI) MCF10A versus HeLa: Table 2B; for Selectivity index (SI) 184B5 versus HeLa: non-cancer 184B5 vs cancer HeLa; for Selectivity index (SI) MCF10A versus HeLa: non-cancer MCF10A vs cancer HeLa
Description: as §1

[5] = MCF7, Table 2A, SRB, 72 h, read-out: IC50 (μM ± SD) MCF7
[6] = Table 2A, SRB, 72 h, read-out: IC50 (μM ± SD) MCF 10A
[7] = Table 3, non-cancer cell line, read-out: IC50 (μM ± SD) MCF 10A
[8] = 72 h, HRP2 ELISA, mean of five experiments
[9] = 184B5, Table 2A, SRB, 72 h, read-out: IC50 (μM ± SD) 184B5
[10] = 184B5, Table 3, non-cancer cell line, read-out: IC50 (μM ± SD) 184B5
[11] = MDA-MB-231, Table 2A, SRB, 72 h, read-out: IC50 (μM ± SD) MDA-MB-231
[12] = MDA-MB-468, Table 2A, SRB, 72 h, read-out: IC50 (μM ± SD) MDA-MB-468
[13] = 72 h, Table 2A, SRB, 72 h, read-out: IC50 (μM ± SD) HeLa

SMILES | IC50 (MCF7; [5]) [µM] | Selectivity index (SI) 184B5 versus MCF7 (MCF7) | Selectivity index (SI) MCF10A versus MCF7 (MCF7) | IC50 (MCF 10A; [6]) [µM] | IC50 (MCF 10A; [7]) [µM] | IC50 [1, 8] [µM] | SI W2 184B5 [1] | SI W2 MCF10A [1] | IC50 (184B5; [9]) [µM] | IC50 (184B5; [10]) [µM] | Anti-plasmodial activity against both 3D7 and W2 (in words) [2] | IC50 (MDA-MB-231; [11]) [µM] | Selectivity index (SI) 184B5 versus MDA-MB-231 (MDA-MB-231) | Selectivity index (SI) MCF10A versus MDA-MB-231 (MDA-MB-231) | IC50 [4, 8] [µM] | SI 3D7 184B5 [4] | Selectivity index (SI) 184B5 versus MDA-MB-468 (MDA-MB-468) | Selectivity index (SI) MCF10A versus MDA-MB-468 (MDA-MB-468) | Selectivity index (SI) 184B5 versus HeLa (HeLa) | Selectivity index (SI) MCF10A versus HeLa (HeLa) | also measured
COc1ccc2c(c1OC)-c1c3c(cc4c1C(C2)N(C)CC4)OCO3 (stereo not drawn) [O-methylbulbocapine 5, O-methylbulbocapnine] | 39.4 ± 6.2 | 1.86 | 1.51 | 59.5 ± 1.9 | 59.5 ± 1.9 | 5.71 ± 0.62 | 12.83 | 10.42 | 73.26 ± 0.47 | 73.26 ± 0.47 | strong activity | 56.6 ± 9.08 | 1.29 | 1.05 | 2.81 ± 0.4 | 26.07 | 1.52 | 1.24 | 1.04 | 0.85 | IC50 ([3]; Homo sapiens, cancer and non-cancer cell lines, read-out: IC50 values, range over the cell lines examined): 39 to 73 µM; SI 3D7 MCF10A [4]: 21.16; Selective index SI on 3D7 strain [4]: > 20; IC50 (MDA-MB-468; [12]): 48.1 ± 1.69 µM; IC50 (HeLa; [13]): 70.4 ± 11.4 µM
CC(=O)O[C@H]1C(=O)[C@@]2(C)[C@H]([C@H](OC(=O)c3ccccc3)[C@]3(O)C[C@H](OC(=O)[C@H](O)[C@@H](NC(=O)c4ccccc4)c4ccccc4)C(C)=C1C3(C)C)[C@]1(OC(C)=O)CO[C@@H]1C[C@@H]2O [Paclitaxel, reference compound] | – | 0.98 | 0.62 | – | – | – | – | – | – | – | – | – | 1.67 | 1.10 | – | – | 0.67 | 0.42 | 0.7 | 0.44 | IC50 (MCF7; MCF7, Table 2A, paclitaxel in nM (footnote a), read-out: IC50 MCF7): 0.00271 ± 0.00111 µM; IC50 (MCF 10A; Table 2A, paclitaxel in nM (footnote a), read-out: IC50 MCF 10A): 0.00167 ± 0.00021 µM; IC50 (184B5; 184B5, Table 2A, paclitaxel in nM (footnote a), read-out: IC50 184B5): 0.00265 ± 0.00191 µM; IC50 (MDA-MB-231; MDA-MB-231, Table 2A, paclitaxel in nM (footnote a), read-out: IC50 MDA-MB-231): 0.00158 ± 0.00075 µM; IC50 (MDA-MB-468; MDA-MB-468, Table 2A, paclitaxel in nM (footnote a), read-out: IC50 MDA-MB-468): 0.00396 ± 0.00032 µM; IC50 (HeLa; Table 2A, paclitaxel in nM (footnote a), read-out: IC50 HeLa): 0.00381 ± 0.00042 µM
COc1cc2c(cc1OC)-c1cc3ccc(OC)c(OC)c3c[n+]1CC2 [Palmatine chloride 6, palmatine] | > 50 | – | – | > 50 | > 50 | 3.19 ± 0.64 | >15.67 | >15.67 | > 50 | > 50 | strong activity | > 50 | – | – | 1.25 ± 0.28 | – | – | – | – | – | Anti-proliferative activity (in words) [3]: did not show any effect; Selective index SI on 3D7 strain [4]: > 20; IC50 (MDA-MB-468; [12]): > 50 µM; IC50 (HeLa; [13]): > 100 µM
COc1cccc2c1C[C@@H]1c3c(cc4c(c3-2)OCO4)CCN1C [Stephanine 3, stephanine] | – | 0.96 | 1.11 | – | – | – | 4.73 | 5.45 | – | – | – | – | 1.10 | 1.27 | – | 9.06 | 0.88 | 1.01 | 1.88 | 2.16 | IC50 (MCF7; MCF7, 72 h, read-out: IC50 (μM ± SD) MCF7): 6.49 ± 0.43 µM; IC50 (MCF 10A; 72 h, read-out: IC50 (μM ± SD) MCF 10A): 7.19 ± 0.33 µM; IC50 (MCF 10A; read-out: IC50 (μM ± SD) MCF 10A): 7.19 ± 0.33 µM; Anti-plasmodial activity on W2 (in words) [1]: not effective; IC50 [1]: 1.32 ± 0.38 µM; IC50 (184B5; 184B5, 72 h, read-out: IC50 (μM ± SD) 184B5): 6.25 ± 0.14 µM; IC50 (184B5; 184B5, read-out: IC50 (μM ± SD) 184B5): 6.25 ± 0.14 µM; IC50 (MDA-MB-231; MDA-MB-231, 72 h, read-out: IC50 (μM ± SD) MDA-MB-231): 5.66 ± 0.16 µM; Anti-plasmodial activity on 3D7 (in words) [4]: very effective; IC50 [4]: 0.69 ± 0.15 µM; SI 3D7 MCF10A [4]: 10.42; IC50 (MDA-MB-468; MDA-MB-468, 72 h, read-out: IC50 (μM ± SD) MDA-MB-468): 7.14 ± 2.11 µM; IC50 (HeLa; 72 h, read-out: IC50 (μM ± SD) HeLa): 3.33 ± 0.23 µM
